The results in this text go back to US8455475B2 (Gruenenthal GmbH, priority 2009, dated 2013).

As usually defined, the inhibition is the drop in the measured response relative to a control, in per cent.

In assay [1] the target is T1, human B1R (bradykinin receptor 1) (Homo sapiens, UniProt P46663).
T1 construct: expressed in transfected cells; host or cells: CHO K1 cells
T1 sequence (P46663 1-353): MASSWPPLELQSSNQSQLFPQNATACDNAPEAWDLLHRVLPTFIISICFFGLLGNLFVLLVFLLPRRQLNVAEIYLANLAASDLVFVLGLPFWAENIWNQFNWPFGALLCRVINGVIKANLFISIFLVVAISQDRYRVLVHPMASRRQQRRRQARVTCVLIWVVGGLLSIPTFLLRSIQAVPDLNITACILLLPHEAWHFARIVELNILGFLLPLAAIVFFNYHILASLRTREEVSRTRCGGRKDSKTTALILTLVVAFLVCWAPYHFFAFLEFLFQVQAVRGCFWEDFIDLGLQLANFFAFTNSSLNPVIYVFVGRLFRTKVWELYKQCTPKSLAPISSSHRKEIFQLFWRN
As to the kind of experiment: FLIPR Ca2+ assay (Fluo-4) on CHO K1 cells stably transfected with the human B1R gene (hB1R cells): % inhibition at 10 μM / IC50, agonist Lys-Des-Arg9-bradykinin. The class given is cell-based. To be noted: for inhibition at 10 µM: CHO-K1, human B1R. The procedure, abridged:
(§1)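 Stable CHO K1 lines, Fluo-4 dye, probenecid-containing buffer. Cpd 10 μM or dose range, 10–20 min, then EC80 agonist (h: Lys-Des-Arg9-BK; r: Des-Arg9-BK). Readout peak FC; % inhibition vs max; IC50 from n=2–3, N≥2.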

Assay [2] deals with T2, rat B1R (bradykinin receptor 1) (Rattus norvegicus, UniProt P97583).
T2 construct: expressed in transfected cells; host or cells: CHO K1 cells
T2 sequence (P97583 1-337): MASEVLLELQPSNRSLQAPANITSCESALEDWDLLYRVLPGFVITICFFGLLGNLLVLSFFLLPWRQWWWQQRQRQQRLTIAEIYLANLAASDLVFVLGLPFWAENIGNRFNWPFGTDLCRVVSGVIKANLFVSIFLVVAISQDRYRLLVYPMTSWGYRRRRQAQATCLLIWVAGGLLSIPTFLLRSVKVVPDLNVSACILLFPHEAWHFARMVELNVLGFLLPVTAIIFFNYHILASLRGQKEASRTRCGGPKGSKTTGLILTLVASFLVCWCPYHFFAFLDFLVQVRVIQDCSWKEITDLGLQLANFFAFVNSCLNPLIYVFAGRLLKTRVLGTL
Description: FLIPR Ca2+ assay (Fluo-4) on CHO K1 cells stably transfected with the B1R gene of the rat (rB1R cells): % inhibition at 10 μM / IC50, agonist Des-Arg9-bradykinin. It is filed as cell-based. The following applies: for inhibition at 10 µM: CHO-K1, rat B1R. The procedure, abridged: as §1

Take `CN(C(=O)Cc1ccccc1Cl)C1CCc2ccc(C(=O)N3CCC4(CC3)CCN(c3ccncc3)CC4)cc21` (centres unmarked) [Ind_CC-019, 2-(2-chlorophenyl)-N-methyl-N-[6-(9-pyridin-4-yl-3,9-diazaspiro[5.5]undecane-3-carbonyl)-2,3-dihydro-1H-inden-1-yl]-acetamide]: the inhibition at 10 µM amounted to 99% in assay [1] and 95% in assay [2].

Turning to `CN(C(=O)/C=C/c1ccccc1Cl)C1CCc2ccc(C(=O)N3CCC4(CC3)CCN(c3ccncc3)CC4)cc21` (centres unmarked) [Ind_CC-020, (E)-3-(2-chlorophenyl)-N-methyl-N-[6-(9-pyridin-4-yl-3,9-diazaspiro[5.5]undecane-3-carbonyl)-2,3-dihydro-1H-inden-1-yl]-acrylamide], the inhibition at 10 µM in assay [1] was 89%; in assay [2], 88%.

`CN(C(=O)C(c1ccccc1)c1ccccc1Cl)C1CCc2ccc(C(=O)N3CCC4(CC3)CCN(c3ccncc3)CC4)cc21` (centres unmarked) [Ind_CC-021, 2-(2-chlorophenyl)-N-methyl-2-phenyl-N-[6-(9-pyridin-4-yl-3,9-diazaspiro[5.5]undecane-3-carbonyl)-2,3-dihydro-1H-inden-1-yl]-acetamide]: the inhibition at 10 µM in assay [1] was found to be 94%; in assay [2], 96%.

With `CN(C(=O)Nc1ccc(Cl)c(Cl)c1)C1CCc2ccc(C(=O)N3CCC4(CC3)CCN(c3ccncc3)CC4)cc21` (centres unmarked) [Ind_CC-022, 3-(3,4-dichlorophenyl)-1-methyl-1-[6-(9-pyridin-4-yl-3,9-diazaspiro[5.5]undecane-3-carbonyl)-2,3-dihydro-1H-inden-1-yl]-urea], the inhibition at 10 µM in assay [1] was 91%; in assay [2] it was 75%.

On to `CN(C(=O)NCc1ccccc1Cl)C1CCc2ccc(C(=O)N3CCC4(CC3)CCN(c3ccncc3)CC4)cc21` (centres unmarked) [Ind_CC-023], for which the “% Inhibition (human B1R) at 10 μM” value in assay [1] turned out to be 98%. In addition, the “% Inhibition (rat B1R) at 10 μM” value in assay [2] turned out to be 93%.

Take `O=C(NC1CCc2ccc(C(=O)N3CCC4(CC3)CCN(c3ccncc3)C4)cc21)c1sccc1Cl` (centres unmarked) [Ind_CC-042, 3-chloro-N-[6-(2-pyridin-4-yl-2,8-diazaspiro[4.5]decane-8-carbonyl)-2,3-dihydro-1H-inden-1-yl]-thiophene-2-carboxylic acid amide]: the inhibition at 10 µM in assay [1] was 98%; in assay [2], 101%.

`O=C(NC1CCc2ccc(C(=O)N3CCC4(CC3)CCN(c3ccncc3)C4)cc21)c1ccc(Cl)s1` (centres unmarked) [Ind_CC-043, 5-chloro-N-[6-(2-pyridin-4-yl-2,8-diazaspiro[4.5]decane-8-carbonyl)-2,3-dihydro-1H-inden-1-yl]-thiophene-2-carboxylic acid amide]: the inhibition at 10 µM in assay [1] amounted to 79%; in assay [2], 88%.

In the case of `O=C(NC1CCc2ccc(C(=O)N3CCC4(CC3)CCN(c3ccncc3)C4)cc21)c1ccc(Cl)cc1Cl` (centres unmarked) [Ind_CC-044, 2,4-dichloro-N-[6-(2-pyridin-4-yl-2,8-diazaspiro[4.5]decane-8-carbonyl)-2,3-dihydro-1H-inden-1-yl]-benzamide], the inhibition at 10 µM came out at 97% in assay [1] and 100% in assay [2].

`O=C(Cc1ccccc1Cl)NC1CCc2ccc(C(=O)N3CCC4(CC3)CCN(c3ccncc3)C4)cc21` (centres unmarked) [Ind_CC-045, 2-(2-chlorophenyl)-N-[6-(2-pyridin-4-yl-2,8-diazaspiro[4.5]decane-8-carbonyl)-2,3-dihydro-1H-inden-1-yl]-acetamide]: the inhibition at 10 µM in assay [1] worked out at 100%; in assay [2], 101%.

For the molecule `O=C(/C=C/c1ccccc1Cl)NC1CCc2ccc(C(=O)N3CCC4(CC3)CCN(c3ccncc3)C4)cc21` (centres unmarked) [Ind_CC-046, (E)-3-(2-chlorophenyl)-N-[6-(2-pyridin-4-yl-2,8-diazaspiro[4.5]decane-8-carbonyl)-2,3-dihydro-1H-inden-1-yl]-acrylamide], the results for the inhibition at 10 µM in assay [1] and in assay [2] were 98% and 68%, respectively.

For `O=C(Nc1ccc(Cl)c(Cl)c1)NC1CCc2ccc(C(=O)N3CCC4(CC3)CCN(c3ccncc3)C4)cc21` (centres unmarked) [Ind_CC-047], the “% Inhibition (human B1R) at 10 μM” value in assay [1] was found to be 94%. In assay [2], the “% Inhibition (rat B1R) at 10 μM” value is 60%.

For `O=C(NCc1ccccc1Cl)NC1CCc2ccc(C(=O)N3CCC4(CC3)CCN(c3ccncc3)C4)cc21` (centres unmarked) [Ind_CC-048, 1-[(2-chlorophenyl)-methyl]-3-[6-(2-pyridin-4-yl-2,8-diazaspiro[4.5]decane-8-carbonyl)-2,3-dihydro-1H-inden-1-yl]-urea], the values for the inhibition at 10 µM in assay [1] and in assay [2] were 98% and 88%, respectively.

Turning to `O=C(c1ccc2c(c1)C(NS(=O)(=O)c1ccccc1Cl)CC2)N1CCC2(CC1)CCN(c1ccncc1)C2` (centres unmarked) [Ind_CC-049, 2-chloro-N-[6-(2-pyridin-4-yl-2,8-diazaspiro[4.5]decane-8-carbonyl)-2,3-dihydro-1H-inden-1-yl]-benzenesulfonic acid amide], the values for the inhibition at 10 µM in assay [1] and in assay [2] were 99% and 101%, respectively.

As to `COc1cc(C)c(S(=O)(=O)NC2CCc3ccc(C(=O)N4CCC5(CC4)CCN(c4ccncc4)C5)cc32)c(C)c1` (centres unmarked) [Ind_CC-050, 4-methoxy-2,6-dimethyl-N-[6-(2-pyridin-4-yl-2,8-diazaspiro[4.5]decane-8-carbonyl)-2,3-dihydro-1H-inden-1-yl]-benzenesulfonic acid amide], the inhibition at 10 µM in assay [1] amounted to 100%; in assay [2], 93%.

Regarding `O=C(NC1CCc2ccc(C(=O)N3CCC4(CC3)CCN(c3ccncc3)C4)cc21)C(c1ccccc1)c1ccccc1Cl` (centres unmarked) [Ind_CC-051, 2-(2-chlorophenyl)-2-phenyl-N-[6-(2-pyridin-4-yl-2,8-diazaspiro[4.5]decane-8-carbonyl)-2,3-dihydro-1H-inden-1-yl]-acetamide], the inhibition at 10 µM in assay [1] turned out to be 71%; in assay [2], 99%.

Regarding `CC1(C)CC(NC(=O)c2ccccn2)c2cc(C(=O)N3CCC4(CC3)CCN(c3ccncc3)CC4)ccc21` (centres unmarked) [Ind_CC-052, N-[3,3-dimethyl-6-(9-pyridin-4-yl-3,9-diazaspiro[5.5]undecane-3-carbonyl)-1,2-dihydro-inden-1-yl]-pyridine-2-carboxylic acid amide], the figures for the inhibition at 10 µM in assay [1] and in assay [2] were 62% and 81%, respectively.

For `CC1(C)CC(NC(=O)Cc2ccccc2Cl)c2cc(C(=O)N3CCC4(CC3)CCN(c3ccncc3)CC4)ccc21` (centres unmarked) [Ind_CC-053, 2-(2-chlorophenyl)-N-[3,3-dimethyl-6-(9-pyridin-4-yl-3,9-diazaspiro[5.5]undecane-3-carbonyl)-1,2-dihydro-inden-1-yl]-acetamide], the inhibition at 10 µM in assay [1] was found to be 99%; in assay [2], 103%.

With `CC1(C)CC(NC(=O)c2ccc(Cl)s2)c2cc(C(=O)N3CCC4(CC3)CCN(c3ccncc3)CC4)ccc21` (centres unmarked) [Ind_CC-054, 5-chloro-N-[3,3-dimethyl-6-(9-pyridin-4-yl-3,9-diazaspiro[5.5]undecane-3-carbonyl)-1,2-dihydro-inden-1-yl]-thiophene-2-carboxylic acid amide], the inhibition at 10 µM in assay [1] amounted to 96%; in assay [2], 102%.

In the case of `CC1(C)CC(NC(=O)c2sccc2Cl)c2cc(C(=O)N3CCC4(CC3)CCN(c3ccncc3)CC4)ccc21` (centres unmarked) [Ind_CC-055, 3-chloro-N-[3,3-dimethyl-6-(9-pyridin-4-yl-3,9-diazaspiro[5.5]undecane-3-carbonyl)-1,2-dihydro-inden-1-yl]-thiophene-2-carboxylic acid amide], the inhibition at 10 µM in assay [1] was 99%; in assay [2] it was 102%.
